Twelve compounds from ChEMBL document CHEMBL1201862, “PubChem BioAssay data set” (2004) can be followed below.

SMILES strings stand for the structures.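 Values below derive from 48-hour exposures of cells grown in 96-well plates, with endpoints linearly interpolated between the two concentrations bracketing the appropriate inhibition level. At the GI50, growth is halved.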 Active and inactive are the calls of the source. Rule as the data show it: active = GI50 up to about 1.1 µM and inactive = higher.

Among the test systems are A498; LOX IMVI; NCI-H226; UO-31; NCI-H522; UACC-62; EKVX; COLO 205; SNB-75; Malme-3M; CCRF-CEM; SK-OV-3; HOP-62; HCT-15; SF-539; OVCAR-3; SR; BT-549; MDA-MB-231.
Test in all cases: inhibition of tumour cell growth, NCI panel, 48 h

For `COC(OC)[C@@H](C)[C@H](O)[C@](C)(O)C1OC(C)(C)OC(C(C)C=C(C)C)C1C` (some centres not stated), the GI50 in the assay on A498 was > 100 µM (inactive); with LOX IMVI it was > 100 µM (inactive); in the assay with NCI-H226, > 100 µM (inactive); in the assay on UO-31, 80.7 µM (inactive); with NCI-H522, > 100 µM (inactive); in the assay on UACC-62, > 100 µM (inactive). The GI50 with EKVX, in the assay on COLO 205, in the assay on SNB-75, in the assay with Malme-3M, in the assay with CCRF-CEM and in the assay with SK-OV-3 was > 100 µM (inactive) in each case. In addition, the GI50 in the assay on HOP-62 was > 100 µM (inactive); in the assay on HCT-15 it was greater than 100 µM; with SF-539 it was > 100 µM (inactive); with OVCAR-3, > 100 µM (inactive); with SR, 73.3 µM (inactive).

Take `Cc1cc(Br)ccc1NC1=CC(=O)C(=O)c2ccccc21`: the GI50 in the assay on A498 was 86.7 µM (inactive); with LOX IMVI, 21.4 µM (inactive); in the assay with NCI-H226, 39.8 µM (inactive); in the assay on UO-31, 94.6 µM (inactive); in the assay on NCI-H522, 30.8 µM (inactive); in the assay with UACC-62, 20 µM (inactive). Also, the GI50 is > 100 µM (inactive) with EKVX; 31.6 µM (inactive) in the assay on COLO 205; 41.1 µM (inactive) with SNB-75; 24.3 µM (inactive) with Malme-3M; 35.1 µM (inactive) in the assay with CCRF-CEM; 49.3 µM (inactive) in the assay on SK-OV-3. For the same compound, the GI50 with HOP-62 is > 100 µM (inactive); with HCT-15, 55.2 µM; in the assay on SF-539, 74.8 µM (inactive); in the assay with OVCAR-3, 35 µM (inactive); in the assay on SR, 15.5 µM (inactive).

With `CC(C)(C)n1c(=O)[nH]c(=O)n1C(C)(C)C`, the GI50 in the assay on A498, in the assay on LOX IMVI, in the assay on NCI-H226, in the assay on BT-549, in the assay with UO-31 and in the assay on UACC-62 was > 100 µM (inactive) each time. For the same compound, the GI50 with EKVX, with COLO 205, in the assay on SNB-75, in the assay on Malme-3M, in the assay with CCRF-CEM and with SK-OV-3 was > 100 µM (inactive) throughout. Besides, the GI50 in the assay on HOP-62 was > 100 µM (inactive); with HCT-15 it was greater than 100 µM; in the assay with SF-539, > 100 µM (inactive); with OVCAR-3 it was > 100 µM (inactive); in the assay on MDA-MB-231, > 100 µM (inactive); in the assay with SR, > 100 µM (inactive).

With `CN(C)CCCN1N=Nc2cccc3cccc1c23`, the GI50 with A498 was 78.7 µM (inactive); in the assay with LOX IMVI, 41.9 µM (inactive); in the assay with NCI-H226 it was > 100 µM (inactive); in the assay with UO-31, > 64.6 µM (inactive); in the assay with NCI-H522 it was 50.9 µM (inactive); with UACC-62 it was > 100 µM (inactive). In addition, the GI50 in the assay on EKVX was > 100 µM (inactive); with COLO 205 it was 34.6 µM (inactive); in the assay on SNB-75 it was > 100 µM (inactive); in the assay on Malme-3M, > 100 µM (inactive); in the assay on CCRF-CEM it was 27.9 µM (inactive); in the assay with SK-OV-3, > 100 µM (inactive). For the same compound, the GI50 in the assay with HOP-62 is > 100 µM (inactive); in the assay with HCT-15, 38.1 µM; in the assay with SF-539 it was > 60.7 µM (inactive); in the assay on OVCAR-3, > 100 µM (inactive); in the assay with SR, 26.5 µM (inactive).

Turning to `S=C1SC(c2ccc(Cl)cc2)(c2ccc(Cl)cc2)c2ccccc21`, the GI50 was 81.8 µM (inactive) in the assay on A498; 25.7 µM (inactive) in the assay with LOX IMVI; 51.2 µM (inactive) in the assay on NCI-H226; 79.1 µM (inactive) in the assay on BT-549; > 100 µM (inactive) in the assay with UO-31; 91.8 µM (inactive) with NCI-H522. In addition, the GI50 with UACC-62 was > 100 µM (inactive); with EKVX it was 91.4 µM (inactive); in the assay with COLO 205 it was 80.5 µM (inactive); in the assay with SNB-75, > 100 µM (inactive); in the assay with Malme-3M, > 100 µM (inactive); in the assay on CCRF-CEM, 43.7 µM (inactive). Further, the GI50 was > 100 µM (inactive) with SK-OV-3; > 100 µM (inactive) in the assay on HOP-62; 65 µM in the assay with HCT-15; > 100 µM (inactive) in the assay with SF-539; 72.1 µM (inactive) with OVCAR-3; > 100 µM (inactive) in the assay on MDA-MB-231. In addition, in the assay with SR, the GI50 is 20.4 µM (inactive).

As to `CCC(/C=C/C1OC(=O)C=CC1C)=C\C(C)C/C=C/C(C)=C/C(C)C(=O)C(C)C(O)C(C)C/C(C)=C/C(=O)O` (configuration not stated), the GI50 in the assay with A498 was 2.08 µM (inactive); with LOX IMVI, < 1e-06 µM (active); in the assay with NCI-H226, 1.67 µM (inactive); in the assay on BT-549 it was 2.22e-06 µM (active); with UO-31, 2.35 µM (inactive); in the assay on NCI-H522, 0.955 µM (active). Besides, the GI50 in the assay with UACC-62 is 1.56 µM (inactive); in the assay on EKVX, 1.92e-05 µM (active); with COLO 205 it was 3.69 µM (inactive); with SNB-75, 1.91 µM (inactive); in the assay on Malme-3M, 1.44 µM (inactive); in the assay on CCRF-CEM, 0.895 µM (active). Besides, the GI50 with SK-OV-3 is 3.11 µM (inactive); with HOP-62, 2.62 µM (inactive); in the assay with HCT-15, 1.28 µM; in the assay with SF-539, 1.04 µM (active); with OVCAR-3, 0.649 µM (active); with MDA-MB-231, 3.4e-06 µM (active). Further, in the assay with SR, the GI50 is < 1e-06 µM (active).

As to `O=C1/C(=C/c2ccccc2)CN(C(=O)Oc2ccc([N+](=O)[O-])cc2)C/C1=C\c1ccccc1`, the GI50 in the assay on A498 was > 10 µM (inactive); in the assay on LOX IMVI it was 0.676 µM (active); with NCI-H226 it was > 10 µM (inactive); with UO-31 it was 9.77 µM (inactive); with NCI-H522, 3.18 µM (inactive); in the assay on UACC-62, 2.41 µM (inactive). In addition, the GI50 with EKVX is > 10 µM (inactive); with COLO 205, 7.83 µM (inactive); with SNB-75 it was 4.4 µM (inactive); with Malme-3M, > 10 µM (inactive); with CCRF-CEM it was 1.38 µM (inactive); in the assay on SK-OV-3, > 10 µM (inactive). The GI50 is > 10 µM (inactive) with HOP-62; 2.08 µM with HCT-15; 9.42 µM (inactive) in the assay on SF-539; 3.73 µM (inactive) in the assay with OVCAR-3; 2.1 µM (inactive) with SR.

For the compound `Cc1csc2c(=O)n(COCc3ccccc3)c(=O)[nH]c12`, the GI50 with A498 is > 100 µM (inactive); with LOX IMVI, > 100 µM (inactive); in the assay on NCI-H226, > 100 µM (inactive); in the assay on BT-549, > 100 µM (inactive); with UO-31, 89.5 µM (inactive); with NCI-H522, 94.8 µM (inactive). Also, the GI50 in the assay on EKVX is 66.2 µM (inactive); with COLO 205, > 100 µM (inactive); with SNB-75 it was > 100 µM (inactive); in the assay with Malme-3M it was > 100 µM (inactive); with CCRF-CEM it was > 100 µM (inactive); in the assay with HOP-62, 59.8 µM (inactive). Further, the GI50 in the assay with SF-539, in the assay on OVCAR-3, in the assay on MDA-MB-231 and in the assay on SR was > 100 µM (inactive) throughout.

With `O=[N+]([O-])c1ccc(-c2ccc(/C=N/n3c(S)nnc3-c3ccc(Cl)cc3)o2)cc1`, the GI50 was > 100 µM (inactive) in the assay with A498; 47.5 µM (inactive) in the assay with LOX IMVI; > 38.6 µM (inactive) in the assay with NCI-H226; > 24.2 µM (inactive) in the assay on UO-31; 28.6 µM (inactive) in the assay with NCI-H522; 27.4 µM (inactive) in the assay on UACC-62. The GI50 was > 100 µM (inactive) in the assay on EKVX; 32.1 µM (inactive) with COLO 205; 33.3 µM (inactive) in the assay on SNB-75; 17.4 µM (inactive) in the assay with Malme-3M; 37.2 µM (inactive) in the assay with CCRF-CEM; > 40.7 µM (inactive) in the assay with SK-OV-3. Moreover, the GI50 with HOP-62 is 17.5 µM (inactive); in the assay on HCT-15, 22.6 µM; with SF-539, > 40.2 µM (inactive); with OVCAR-3, 27.9 µM (inactive); in the assay with SR, 22.3 µM (inactive).

Regarding `C=CCNC(=O)/C(Cc1cc(Br)c(OC)c(Br)c1O)=N\O`, the GI50 in the assay on A498 is 10.1 µM (inactive); in the assay on LOX IMVI, 5.68 µM (inactive); with NCI-H226 it was 2.59 µM (inactive); in the assay with BT-549 it was 3.03 µM (inactive); in the assay with UO-31, 3.49 µM (inactive); in the assay with NCI-H522 it was 1.78 µM (inactive). In addition, the GI50 was 8.75 µM (inactive) in the assay with UACC-62; 3.81 µM (inactive) with EKVX; 12.3 µM (inactive) in the assay with COLO 205; 1.34 µM (inactive) in the assay with Malme-3M; 2.79 µM (inactive) in the assay on HOP-62; 2.57 µM in the assay on HCT-15. Moreover, the GI50 with SF-539 is 3.6 µM (inactive); in the assay on OVCAR-3 it was 2.38 µM (inactive); with MDA-MB-231, 6.73 µM (inactive); with SR it was 1.17 µM (inactive).

`O=C1NC(=O)C(COCc2ccccc2)C2=C1SCCC2` (configuration not stated): the GI50 in the assay on A498, with LOX IMVI, in the assay on NCI-H226, in the assay with BT-549, in the assay with UO-31 and with NCI-H522 was > 100 µM (inactive) each time. Besides, the GI50 in the assay with EKVX, with COLO 205, with SNB-75, in the assay with Malme-3M, with CCRF-CEM and in the assay on HOP-62 was > 100 µM (inactive) throughout. The GI50 is greater than 100 µM in the assay with HCT-15; > 100 µM (inactive) with SF-539; > 100 µM (inactive) in the assay on OVCAR-3; > 100 µM (inactive) in the assay with MDA-MB-231; > 100 µM (inactive) in the assay on SR.

In the case of `CCC(C)C(Nc1c2ccccc2nc2c(C(=O)NCCN(C)C)cccc12)C(=O)O` (configuration not stated), the GI50 in the assay on A498 is 16.9 µM (inactive); in the assay with LOX IMVI, 4.8 µM (inactive); in the assay on NCI-H226, 6.92 µM (inactive); in the assay on UO-31, 8.83 µM (inactive); in the assay with NCI-H522, 12.7 µM (inactive); in the assay with UACC-62, 15.9 µM (inactive). The GI50 in the assay with EKVX is 16.2 µM (inactive); with COLO 205 it was 6.15 µM (inactive); with SNB-75 it was 18 µM (inactive); in the assay on Malme-3M it was 12.3 µM (inactive); in the assay with CCRF-CEM, 24.3 µM (inactive); in the assay on SK-OV-3, 22 µM (inactive). The GI50 in the assay on HOP-62 was 13 µM (inactive); with HCT-15, 7.45 µM; in the assay on OVCAR-3, 23.6 µM (inactive); in the assay with MDA-MB-231 it was 17.6 µM (inactive); with SR, 46.6 µM (inactive).
